Where two headings read alike, the source gives them in different places. No end group written: not given here.
What was measured:
[1] = tested on: hepatoma and pancreatic cancer cells; test: FITC-peptide binding to hepatoma and pancreatic cancer cells; assay type: cell-based
NPC-TW07 cells = test: Flow cytometry analysis of FITC-peptide binding to cells; assay type: cell-based
Text: (§1) The cultured cells, including nasopharyngeal carcinoma (NPC-TW01 and NPC-TW07), non-small cell lung cancer (H1299 and A549), neuroblastoma (Be2C), breast cancer (MB157) and immortalized embryonic renal epithelia (TEKID) ([…]) are subjected to flow cytometer (FACSCAN, BD Co., U.S.A.) after the FITC (Fluorescein isothiocyanate)-targeted peptide SEQ ID NO:1 treatment. Simultaneously, FITC-control peptide, FITC-biotin-targeted peptide SEQ ID NO: 1 (B-P) and FITC-biotin-control peptide (B-C-P) are used for flow cytometry comparison.

NPC cells = test: Addition of targeted peptide to NPC cell culture medium; assay type: cell-based; settings: 1 mg/mL in NPC cells culture medium, sustained to 10 days
Text: Apparently, this finding indicate that the protein bound by the targeted peptide is not a receptor protein or the like thereof.

HepG2 xenografts = test: Peptide targeted chemotherapy of mice bearing HepG2 xenografts; assay type: in vivo; settings: SCID mice bearing hepatoma xenograft
Method: For the peptide targeted chemotherapy, 40 male SCID mice were transplanted with […] HepG2 cells into their right thigh subcutaneously; after 10 days, solid xenografts measuring approximately 0.8 cm in diameter were found in each mouse, then they were divided into four groups (each group included 10 mice). The first group was injected with PBS; the second and third groups were injected either with L-P-L-D or PC5-52-P-L-D, separately. Each dose contained 2 mg doxorubicin/kg of mouse body weight. The fourth group mice were injected with L-P-L-D (1 mg doxorubicin/kg) mixed with PC5-52-P-L-D (1 mg doxorubicin/kg). All doses were injected through the tail vein, once per week, for a total of 4 injections, and all animals were sacrificed at day 35. The body weight and tumor size were measured weekly. All animals were examined by routine autopsy. The xenograft tumors and all visceral organs were examined by histopathological sections after stained by hematoxylin and eosin. The pegylated peptide was linked to L-D in our laboratory according to our previously published methods (Cancer Res. 64:8002-8008, Nov. 1, 2004). For comparison, another animal experiment was performed. In the later experiment, the present invention used NSG (NOD-SCID immunodeficiency gamma strain animals); the experiments were totally similar to the NOD SCID mice case. […]

NPC-TW01 cells = test: Flow cytometry analysis of FITC-peptide binding to cells; assay type: cell-based
Text: as §1

[2] = tested on: breast cancer (MB157) cells; test: as above; assay type: cell-based
Text: as §1

[3] = tested on: neuroblastoma (Be2C) cells; test: as above; assay type: cell-based
Text: as §1

[4] = tested on: non-small cell lung cancer (A549) cells; test: as above; assay type: cell-based
Text: as §1

[5] = tested on: non-small cell lung cancer (H1299) cells; test: as above; assay type: cell-based
Text: as §1

[6] = tested on: immortalized embryonic renal cell line (293T); test: as above; assay type: cell-based, human; settings: 293T immortalized renal cell line
Text: as §1

NPC cells (NPC-TW01) = test: Prussian blue staining of cultured NPC cells incubated with peptide-linked iron oxide nanoparticles; assay type: cell-based; settings: 4° C. for 1.0 hr and 37° C. for 4 hr
Text: The dextran coated-Fe3O4 is linked with the targeted peptide SEQ ID NO:1 or the FITC-targeted peptide SEQ ID NO:1 by the MagQu Company. Dextran is used as the hydrophilic surfactant layer. The iron oxide fluid with the desired concentration is available by diluting the highly concentrated iron oxide fluid with a pH 7.4 phosphate buffered saline (PBS) solution. […] Cells are washed in a 2% fetal bovine serum in PBS. After fixation, the binding ability between the targeted peptide SEQ ID NO: 1 and tumor cells can be observed by Prussian blue reagent; each iron oxide nanoparticle is bound by approximately above 10 targeted peptides.

[7] = tested on: breast cancer cells (MDA-MB-231); test: Prussian blue staining of breast cancer cell line; assay type: cell-based
blood monocytes = test: Prussian blue staining of blood monocytes; assay type: cell-based; settings: 1.0 hr and 37° C. for 4 hr
Method: (§3) Blood monocytes, hepatoma (Hep G2) and pancreatic cancer (Pan 1) cell lines are incubated with P-Dex-Fe3O4 nanoparticle for 1.0 hr and 37° C. for 4 hr, and then are stained with Prussian blue reagent.

[8] = tested on: hepatoma (Hep G2) cell line; test: Prussian blue staining of hepatoma cell line; assay type: cell-based
Text: In addition to the targeted peptide SEQ ID NO: 1, the present invention also provides another targeted peptide SEQ ID NO: 2 for synthesizing the targeted peptide SEQ ID NO: 2-linked dextran-coated iron oxide nanoparticles.

[9] = tested on: pancreatic cancer (Pan 1) cell line; test: Prussian blue staining of pancreatic cancer cell line; assay type: cell-based
Method: as §3

NPC biopsy specimens = test: Peptide histochemical localization in formalin-fixed paraffin-embedded NPC biopsy specimens; set-up: species or system human; settings: overnight at 4° C.
Method: (§4) The sections are incubated overnight at 4° C. with the P-Dex-Fe3O4 nanoparticles, and washed with PBS, then are incubated for 15-30 min with routine Prussian blue reagent (containing 2% potassium ferricyanide (Sigma-aldrich.com. St Louis Mo., U.S.A.) and 0.5 N HCl in dH2O=1:1), followed by counterstaining for 5 min with nuclear fast red solution, washed with water, and mounted with 50% glycerol directly or with balsam after alcohol dehydration.

[10] = tested on: breast cancer surgical specimens; test: Peptide histochemical localization in breast cancer surgical specimens; set-up: species or system human
Method: as §4

[11] = tested on: hepatoma surgical specimens; test: Peptide histochemical localization in hepatoma surgical specimens; set-up: species or system human; settings: for Prussian blue reaction product in tumor cells of hepatoma sections: formalin-fixed paraffin-embedded
Text: Peptide histochemical diagnosis of the present invention can be applied to hepatoma surgical specimens.

[12] = tested on: pancreatic cancer sections; test: Peptide histochemical localization in pancreatic surgical specimens; set-up: species or system human; settings: formalin-fixed paraffin-embedded
Text: Peptide histochemical diagnosis of the present invention can be applied to pancreatic surgical specimens, ether the targeted peptide is SEQ ID NO: 1 or SEQ ID NO: 2.

[13] = tested on: normal peripheral blood cells; test: Prussian blue staining of normal peripheral blood smears; assay type: cell-based, human
Text: The present invention prepared L-peptide-linked dextran-coated iron oxide nanoparticles, such as, L-P-Fe3O4, SP-94-P-Fe3O4, PC5-52-P-Fe3O4 and control-peptide-Fe3O4 nanoparticles (C-P-Fe3O4). The dextran coated-Fe3O4 nanoparticles (Dex-Fe3O4) were purchased from MAGQU Company. This company conjugates L-peptide, SP-94-peptide and PC5-52-peptide, separately, to the Dex-Fe3O4 nanoparticles. Each Dex-Fe3O4 can be linked with more than 10 peptide molecules. For localization of the peptide targeted protein in HepG2 and Huh-7 cell lines, the present invention first have to check whether our peptide can also bind to the mononuclear cells in the human peripheral blood. The mononuclear cells were obtained from the normal personal blood using Histopaque-1077 solution (SIGMA, St, Louis, Mo. U.S.A).
(§2) After the blood smears were fixed by formaldehyde, they were treated with or without Triton X-100 detergent and then stained with L-P-Fe3O4, SP-94-P-Fe3O4 or Control-P-Fe3O4 (C-P-Fe3O4) (40 μg/mL) and subjected to Prussian blue reaction with nuclear fast red contrast staining. Using the similar peptide histochemical procedure, the HepG2 and Huh-7 tumor cells were also stained. But in addition to the L-P-Fe3O4 and SP-94-P-Fe3O4, a ratio of 1:1 of L-P-Fe3O4: SP-94-P-Fe3O4 were mixed and used to stain the HepG2 and Huh-7 tumor cells.

HepG2 tumor cells = test: Prussian blue staining of formalin-fixed, Triton X-100 treated HCC cell line; assay type: cell-based
Method: as §2

Huh-7 tumor cells = test: as above; assay type: cell-based
Method: as §2

[14] = tested on: hepatocellular carcinoma surgical specimens; test: Peptide histochemistry of hepatocellular carcinoma (HCC) surgical specimens; set-up: species or system human; settings: for Prussian blue staining pattern in HCC surgical sections: 40 μg per mL, overnight; for Average percentage of stained tumor cell number 25-50% / Average percentage of stained tumor cell number <25% / Average percentage of stained tumor cell number >75%: N = 30, ten HPF (x 400)
Method: For hepatocellular carcinoma surgical specimens, after the deparaffinization of the paraffin-embedded sections and retrieval of targeted protein molecule, as part of the routine immunohistochemistry described as above-mentioned, the sections were incubated overnight with (a) The L-P-Fe3O4 (40 μg per mL); (b) SP-94-P-Fe3O4 (40 μg/mL); (c) one to one ratio of (a) and (b), then with routine Prussian blue reagents, followed by a counter staining for 2 min with nuclear fast red solution. The present invention has used this method to examine 30 hepatocellular carcinoma surgical specimens without difficulty. To count the positive stained cell number of the Prussian blue stained cells in each paraffin section, which are counted 10 high power fields (×400).

## FITC-targeted peptide SEQ ID NO: 2: FITC-labelled targeted peptide SEQ ID NO: 2 (SFSIIHTPILPL; also: FITC label)
[1]
  binding to hepatoma and pancreatic cancer cells: can be used to bind to hepatoma and pancreatic cancer cells

## FITC-linked control peptide SEQ ID NO: 3: FITC-labelled control peptide (RLLDTNRPLGGG; also: FITC label) [reference compound]
NPC-TW07 cells
  binding to NPC-TW07 cells (flow cytometry histogram): very weak binding activity

## targeted peptide SEQ ID NO: 1: 12 amino acid targeted peptide (L-peptide) obtained from nasopharyngeal carcinoma (RLLDTNRPLLPY)
NPC cells
  change of tumor cell morphology and behavior: no any specific change of tumor cell morphology and behavior

## control peptide (RLLDTNRPLGGG; also: FITC or biotin label)
HepG2 xenografts
  adverse event / visceral organs: the visceral organs revealed marked apoptotic change
  tumor growth / xenograft size: the xenograft size was also decreased

## FITC-targeted peptide SEQ ID NO: 1: fluorescein isothiocyanate-labelled targeted peptide SEQ ID NO:1 (RLLDTNRPLLPY; also: FITC label)
NPC-TW01 cells
  binding to NPC-TW01 cells (flow cytometry): a clear binding peak
NPC-TW07 cells
  binding to NPC-TW07 cells (flow cytometry histogram): a clear peak is found in the histogram
[2]
  binding to MB157 cells (flow cytometry): a clear binding peak
[3]
  binding to Be2C cells (flow cytometry): a clear binding peak
[4]
  binding to A549 cells (flow cytometry): a clear binding peak
[5]
  binding to H1299 cells (flow cytometry): a clear binding peak
[6]
  binding to 293T cells (flow cytometry): without showing any binding phenomenon

## P-Dex-Fe3O4 (RLLDTNRPLLPY)
NPC cells (NPC-TW01)
  Prussian blue reaction product in NPC cells: the reaction products are seen in the cytoplasm of a majority of the tumor cells
[7]
  Prussian blue reaction product in breast cancer cells: the reaction products appear in most of the cytoplasm of breast cancer cells
Blood monocytes
  Prussian blue reaction product in blood monocytes: no reaction product
[8]
  Prussian blue reaction product in hepatoma cell line: show blue reaction products
[8]; listed as targeted peptide SEQ ID NO:1-linked dextran-coated iron oxide nanoparticles
  Prussian blue reaction product in hepatoma cell line: blue reaction product
[9]
  Prussian blue reaction product in pancreatic cancer cell line: show blue reaction products
NPC biopsy specimens
  Prussian blue reaction product in tumor cells of NPC biopsy sections: the Prussian blue reaction product is easily identified in the tumor cells of stained sections
[10]
  Prussian blue reaction product in tumor cells from breast cancer metastatic axillary lymph nodes: reveal blue reaction product
[10]; breast cancer sections
  Prussian blue reaction product in stromal regions in tumor nests: no blue reaction product
[10]; formalin-fixed paraffin-embedded, specimens more than 1 cm in diameter
  Prussian blue reaction product in breast cancer sections: show the Prussian blue reaction products
[11]
  Prussian blue reaction product in tumor cells of hepatoma sections: show in single infiltrating tumor cells
[11]; normal cells compressed by tumor cells
  Prussian blue reaction product in normal cells of hepatoma sections: the blue reaction products do not show in the normal cells
[12]
  Prussian blue reaction product in pancreatic cancer sections: all show the reaction products
[13]; with Triton X-100
  Prussian blue reaction product in fixed blood smears treated with Triton X-100: the mononuclear cells but not red blood cells showed blue reaction product in their cytoplasm
[13]; without Triton X-100
  Prussian blue reaction product in blood smears fixed in formalin: no reaction product was seen
HepG2 tumor cells
  Prussian blue stained HepG2 tumor cells: many tumor cells were stained by a blue reaction product
Huh-7 tumor cells
  Prussian blue stained Huh-7 tumor cells: stained cell number is somewhat a little more than that of SP-94-P-Fe3O4 stained case
[14]
  Prussian blue staining pattern in HCC surgical sections: the Prussian blue reaction product was easily identified in the tumor cells in stained sections
  Average percentage of stained tumor cell number 25-50%: 7 cases
  Average percentage of stained tumor cell number <25%: 6 cases
  Average percentage of stained tumor cell number >75%: 17 cases

## SP-94-P-Fe3O4 (SFSIIHTPILPL)
[8]
  Prussian blue reaction product in hepatoma cell line: blue reaction product
[11]
  Prussian blue reaction product in tumor cells of hepatoma sections: the Prussian blue products can also be observed in the tumor cells
[12]
  Prussian blue reaction product in pancreatic cancer sections: all show the reaction products
HepG2 tumor cells
  Prussian blue stained HepG2 tumor cells: the stained cell number was lower than that of the L-P-Fe3O4 treated case
[14]
  Prussian blue staining pattern in HCC surgical sections: the staining pattern was the same as L-P-Fe3O4 staining
  Average percentage of stained tumor cell number 25-50%: 9 cases
  Average percentage of stained tumor cell number <25%: 5 cases
  Average percentage of stained tumor cell number >75%: 16 cases
